Tests used:
platelet P2Y12 receptor = platelet P2Y12 receptor (Homo sapiens, UniProt Q9H244); settings: well-known in the art; cited from earlier work
[1] = system: platelet suspensions containing bacteria; assay: Radiotracer uptake into platelet suspensions containing bacteria; type: cell-based, human; settings: 2 MBq tracer, 1 h at 37° C.
Protocol: Preparation of human washed platelets: a Blood sample was collected from healthy volunteers on Acid Citrate Dextrose (ACD: 93 mM Na3-citrate, 7 mM citric acid, 14 mM dextrose, pH 6.0) containing 1 U/ml apyrase in a volume ratio of ACD to blood of 1:6. Blood was centrifuged for 5 s at 800×g followed by 5 min at 100×g to obtain platelet rich plasma (PRP). PRP was diluted 3-fold in ACD containing 1 U/ml apyrase ((Apyrase from potatoes, Grade I (A6132 Sigma-Aldrich)) and centrifuged at 1000×g to obtain a platelet pellet. The platelet pellet was resuspended at a concentration of 3×10^8 ml^−1 in Tyrode's buffer (137 mM NaCl, 12 mM NaHCO3, 2 mM KCl, 0.34 mM Na2HPO4, 1 mM MgCl2, 5.5 mM glucose, 5 mM Hepes, 0.35% Bovine Serum Albumine from Sigma Aldrich A3294) and Hepes refers to 4-(2-Hydroxyethyl)piperazine-1-ethanesulfonic acid, N-(2-Hydroxyethyl)piperazine-N′-(2-ethanesulfonic acid) (H4034, Sigma-Aldrich).
Bacteria and platelets were harvested by centrifugation (1000×g, 10 min) and washed three times by successive centrifugations (1000×g for 10 min). Supernatants were collected in scintillation vials. After washing, the cells were transferred into scintillation vials. Cells and supernatants were counted by gamma counter (2470 Wizard^2™ (Perkin Elmer))
Results were obtained as counts per min. […]

S. epidermidis bacteria = assay: Radiotracer uptake into bacteria, selectivity over mammalian cells (Example 4); type: cell-based; settings: 2 MBq tracer, 1 h at 37° C.
Protocol: S. epidermidis bacteria were grown overnight in tryptic soy broth (TSB) at 37° C., with shaking at 250 rpm. The overnight culture was diluted to OD600 0.1 and incubated until mid-exponential phase was reached. 1×10^8 CFU were resuspended in 1 ml RPMI 1640. […] Bacteria and non-adherent cells were harvested by centrifugation (600×g, 5 min) and washed three times by successive centrifugations. Cell supernatants were collected in scintillation vials. After washing, the cells were transferred into scintillation vials. Adherent cells were washed three times with fresh medium (McCoy's 5A medium plus 10% foetal bovine serum). Supernatants were collected into scintillation vials. Adherent cells were detached by trypsin treatment and placed into scintillation vials. The scintillation vials for cells and supernatants were counted by gamma counter. Results were obtained as counts per min. Results were normalised for controls (no cells) and by calculating the percentage of activity in the cell containing scintillation vials compared with the total counts (cells and supernatant combined).

THP1 cells = assay: Radiotracer uptake into THP1 cells; type: cell-based, human; settings: 2 MBq tracer, 1 h at 37° C.
Protocol: (§1) THP1 (ATCC® TIB-202™) and HL60 (ATCC® CCL-240™) cell lines were grown in RPMI 1640 tissue culture medium supplemented with L-glutamine, 10% foetal calf serum and 1% penicillin/streptomycin at 37° C. and 5% CO2. HT29 cell line (ATCC® HTB-38) was grown in McCoy's 5A medium and 10% foetal bovine serum at 37° C. and 5% CO2.
(§2) Non-adherent cell lines (HL60, THP1; 1×10^6 cells ml^−1) were harvested, washed and resuspended in 1 ml tissue culture medium. The adherent cells HT29 were maintained in 6-well plates at 80% confluence.
(§3) Bacteria and non-adherent cells were harvested by centrifugation (600×g, 5 min) and washed three times by successive centrifugations. Cell supernatants were collected in scintillation vials. After washing, the cells were transferred into scintillation vials. Adherent cells were washed three times with fresh medium (McCoy's 5A medium plus 10% foetal bovine serum). Supernatants were collected into scintillation vials. Adherent cells were detached by trypsin treatment and placed into scintillation vials. The scintillation vials for cells and supernatants were counted by gamma counter. Results were obtained as counts per min. Results were normalised for controls (no cells) and by calculating the percentage of activity in the cell containing scintillation vials compared with the total counts (cells and supernatant combined).

HL60 cells = assay: Radiotracer uptake into HL60 cells; type: cell-based, human; settings: 2 MBq tracer, 1 h at 37° C.
Protocol: as §1, §2, §3

HT29 cells = assay: Radiotracer uptake into HT29 cells; type: cell-based, human; settings: 2 MBq tracer, 1 h at 37° C.
Protocol: as §1, §2, §3

Sequence of platelet P2Y12 receptor (Q9H244 whole entry): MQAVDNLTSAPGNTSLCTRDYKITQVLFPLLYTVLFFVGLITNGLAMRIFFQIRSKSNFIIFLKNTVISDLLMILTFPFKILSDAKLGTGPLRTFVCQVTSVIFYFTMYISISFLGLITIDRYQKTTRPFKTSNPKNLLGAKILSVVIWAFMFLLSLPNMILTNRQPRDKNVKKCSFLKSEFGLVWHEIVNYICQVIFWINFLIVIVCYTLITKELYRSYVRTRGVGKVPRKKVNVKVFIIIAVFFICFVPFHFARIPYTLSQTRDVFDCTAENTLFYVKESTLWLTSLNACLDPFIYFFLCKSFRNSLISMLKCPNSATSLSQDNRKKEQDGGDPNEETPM

| Structure (SMILES) | binding to platelet P2Y12 receptor (platelet P2Y12 receptor) | relative activity associated with the cell mixture, relative to the activity of 18F-FDG [1] | uptake into bacteria (S. epidermidis bacteria) | uptake into THP1 (leukocytic) cells (THP1 cells) | uptake into HL-60 (leukocytic) cells (HL60 cells) | uptake into HT29 (tumor) cells (HT29 cells) |
| --- | --- | --- | --- | --- | --- | --- |
| CCCSc1nc(N[C@@H]2C[C@H]2c2ccc(F)c(F)c2)c2nnn([C@@H]3C[C@H](OCCO)[C@@H](O)[C@H]3O)c2n1 [Triafluocyl] | binds the platelet P2Y12 receptor reversibly | – | – | – | – | – |
| CCCSc1nc(NC2CC2c2ccc([18F])c(F)c2)c2nnn([C@@H]3C[C@H](OCCO)[C@@H](O)[C@H]3O)c2n1 (stereo partly drawn) [^18F-Triafluocyl, (1S,2S,3R,5S)-3-(7-((2-(3-fluoro-4-(fluoro-^18F)phenyl)cyclopropyl)amino)-5-(propylthio)-3H-[1,2,3]triazolo[4,5-d]pyrimidin-3-yl)-5-(2-hydroxyethoxy)cyclopentane-1,2-diol] | – | about 10 fold | uptake into bacteria | no uptake was observed | no uptake was observed | no uptake was observed |

— patent US20220143226A1, “USE OF TRIAZOLO[4,5-D]PYRIMIDINE DERIVATIVES” (UNIVERSITÉ DE LIÈGE, priority 2019, published 2022)
